Source: PubChem BioAssay (NCI)
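Where inhibition never reached the appropriate level, the endpoint shown equals the highest concentration tested. Otherwise, values were interpolated linearly from a five-concentration, 48-hour dose response in 96-well plates. Abbreviation: GI50, concentration required for 50% inhibition of growth. TGI: concentration producing complete growth inhibition.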

How the values were obtained:
Assay in all cases: NCI-60 cell line screen, 48 h
KM12 colon = system: KM12 colon
U251 CNS = system: U251 CNS
CCRF-CEM leukemia = system: CCRF-CEM leukemia
HL-60(TB) leukemia = system: HL-60(TB) leukemia
SF-539 CNS = system: SF-539 CNS
NCI-H226 lung = system: NCI-H226 lung
HCC-2998 colon = system: HCC-2998 colon
786-0 renal = system: 786-0 renal
RXF 393 renal = system: RXF 393 renal
MALME-3M melanoma = system: MALME-3M melanoma

SMILES | TGI (KM12 colon) | TGI (U251 CNS) | TGI (CCRF-CEM leukemia) | TGI (HL-60(TB) leukemia) | TGI (SF-539 CNS) | TGI (NCI-H226 lung) | TGI (HCC-2998 colon) | TGI (786-0 renal) | TGI (RXF 393 renal) | TGI (MALME-3M melanoma) | GI50 (RXF 393 renal) | GI50 (KM12 colon) | GI50 (U251 CNS) | GI50 (CCRF-CEM leukemia) | GI50 (HL-60(TB) leukemia) | GI50 (SF-539 CNS) | GI50 (HCC-2998 colon) | GI50 (786-0 renal) | GI50 (MALME-3M melanoma) | GI50 (NCI-H226 lung)
COC(=O)[C@@]12C3=NO[C@]1(C(=O)OC)C(O[Si](C)(C)C(C)(C)C)C1OC(C)(C)OC1[C@@H]2[C@@H](OCc1ccccc1)CC3 (some centres undefined) | > 100 µM | > 100 µM | > 100 µM | 13.9 µM | > 100 µM | > 100 µM | > 100 µM | > 100 µM |  |  |  |  |  |  |  |  |  |  |  | 
CNS(=O)(=O)NN(C)S(=O)(=O)c1ccc(C)cc1 | > 100 µM |  | > 100 µM | > 100 µM | > 100 µM |  | > 100 µM | > 100 µM | > 100 µM | > 100 µM |  |  |  |  |  |  |  |  |  | 
CC[C@]12C=CCN3CC[C@]4(C(=C(C(=O)OC)C1)Nc1ccccc14)[C@@H]32 | 14.5 µM | 16.4 µM | > 100 µM | 11.5 µM | 10.1 µM |  | 24.9 µM | 15.6 µM | 7.24 µM | 15.2 µM | 2.51 µM | 3.65 µM | 3.64 µM | 2.73 µM | 3.18 µM | 3.09 µM | 11.4 µM | 3.66 µM | 3.43 µM | 
COc1ccc2c(c1)C(=O)/C(=C/c1ccc(OCC(=O)c3ccc(Cl)cc3)cc1)O2 | 30.1 µM | 35.3 µM | 4.75 µM | 16.9 µM | 34.8 µM | 37.1 µM |  | 47.2 µM | 42.4 µM | 42.3 µM | 17.3 µM | 15.6 µM | 15.5 µM | 1.92 µM | 2.89 µM | 17.9 µM |  | 21.7 µM | 20 µM | 12.2 µM
COC(=O)C1(C)CCc2c(ccc3ccccc23)C1=O (centres undefined) | 70.4 µM | > 100 µM | > 100 µM | > 100 µM | > 100 µM |  | > 100 µM | > 100 µM | 67.5 µM | 69 µM |  |  |  |  |  |  |  |  |  | 
O=c1[nH]cnc2c1nnn2C1C=C(CO)C(O)C1O (centres undefined) | > 100 µM | > 100 µM | > 100 µM |  | > 100 µM | > 100 µM | > 100 µM | > 100 µM | > 100 µM |  |  |  |  |  |  |  |  |  |  | 
Nc1ncn([C@@H]2C=C(CO)C(O)C2O)c(=O)n1 (some centres undefined) | > 100 µM | > 100 µM | > 100 µM | > 100 µM | > 100 µM | > 100 µM | > 100 µM | > 100 µM |  | > 100 µM |  |  |  |  |  |  |  |  |  | 
Cc1cc(C)c2c(c1C)CN1CN2Cc2c(C)c(C)cc(C)c21 | > 100 µM | > 100 µM | > 100 µM | 46.3 µM | > 100 µM | > 100 µM |  | > 100 µM | 93.8 µM | > 100 µM |  |  |  |  |  |  |  |  |  | 
Nc1ccc(C(=O)O)c2[nH]c3ccccc3c(=O)c12 | > 100 µM | > 100 µM | > 100 µM | > 100 µM | > 100 µM |  | > 100 µM | > 100 µM | > 100 µM | > 100 µM |  |  |  |  |  |  |  |  |  | 
CC1(C)CC[C@]2(C(=O)O)CCC3(C)C(=CCC4[C@@]5(C)CC[C@H](OC6OCC(O)C(O)C6OC6OC(CO)C(O)C(O)C6O)C(C)(C)C5CC[C@]43C)C2C1 (some centres undefined) | 4.8 µM | 3.4 µM |  |  | 4.31 µM | 3.38 µM | 3.16 µM | 4.02 µM | 3.53 µM | 3.54 µM |  |  |  |  |  |  |  |  |  | 
CC(=O)[CH-]C(=O)c1ccccc1.CC(=O)[CH-]C(=O)c1ccccc1.[O-]Cc1cccs1.[O-]Cc1cccs1.[Ti+4] | > 100 µM | > 100 µM |  | > 100 µM | > 100 µM | > 100 µM | > 100 µM | > 100 µM |  | > 100 µM |  | 47.9 µM | > 100 µM |  | 4.26 µM | 71.2 µM | > 100 µM | > 100 µM | > 100 µM | 82.3 µM
O=C1/C(=C/c2ccccc2Cl)COc2ccccc21 | 34.9 µM | 26.9 µM | 33.7 µM | 58 µM | 31 µM |  | 35.9 µM | 28.5 µM | 28.9 µM | 29.7 µM |  |  |  |  |  |  |  |  |  | 
CC1(C)CC(C2CC(C)(C)CC(C)(C)[C@H]2O)[C@@H](O)C(C)(C)C1 (some centres undefined) | > 100 µM | > 100 µM | > 100 µM | > 100 µM | > 100 µM | > 100 µM | > 100 µM | > 100 µM |  | > 100 µM |  |  |  |  |  |  |  |  |  | 
Cc1ccc(S(=O)(=O)OC(C=O)C(O)C(O)COC(c2ccccc2)(c2ccccc2)c2ccccc2)cc1 (centres undefined) | 24.2 µM | 27.9 µM |  |  | 30.8 µM | 29.4 µM | 24.3 µM | 27.3 µM | 30.3 µM | 33.7 µM |  |  |  |  |  |  |  |  |  | 
COC(=O)C1(c2ccc(OC)cc2)NC(c2ccccc2)C2C(=O)N(c3ccc(OC)cc3)C(=O)C21 (centres undefined) | > 100 µM | > 100 µM | > 100 µM | > 100 µM | > 100 µM |  | > 100 µM | > 100 µM | > 100 µM | > 100 µM |  |  |  |  |  |  |  |  |  | 
N/C(=N\N=C=C1C(=O)Nc2ccc(F)cc21)NO | > 100 µM | > 100 µM | > 100 µM | > 100 µM | > 100 µM |  | > 100 µM | > 100 µM | > 100 µM | > 100 µM |  |  |  |  |  |  |  |  |  | 
C=C1CCC2C3(C)COC(c4cccc(Cl)c4)OC3CCC2(C)C1/C=C/C1=CCOC1=O (centres undefined) | > 100 µM | > 100 µM | > 100 µM | > 100 µM | > 100 µM | > 100 µM |  | > 100 µM | > 100 µM | > 100 µM | > 100 µM | 8.01 µM | 7.08 µM | 7.51 µM | 8.27 µM | 48.5 µM |  | > 100 µM | > 100 µM | 6.92 µM
COc1cc2c(c(Br)c1N)-c1cc(Br)c(N)cc1C2=O | > 100 µM | > 100 µM | > 100 µM | > 100 µM | > 100 µM |  | > 100 µM | > 100 µM | > 100 µM | > 100 µM | > 100 µM | > 85.1 µM | 4.58 µM | > 100 µM | > 100 µM | 4.93 µM | 4.97 µM | > 100 µM | > 100 µM | 
Cn1c(=O)c2c(nc3n2C(CCl)CO3)n(C)c1=O (centres undefined) | > 100 µM | > 100 µM | > 100 µM | > 100 µM | > 100 µM | > 100 µM | > 100 µM | > 100 µM |  | > 100 µM |  |  |  |  |  |  |  |  |  | 
